Reference: US12370183B2, “Compositions and methods for treating malaria” (Rutgers, The State University of New Jersey, priority 2020, dated 2025)
Where two headings read alike, the source gives them in different places.

What was measured:
Type in all cases: cell-based
[1] = test system: 3D7 strain of Plasmodium falciparum; experiment: Potency in the 3D7 strain of Plasmodium falciparum (EC50); settings: Plasmodium falciparum
Description: (§1) The present invention relates to methods of treating malaria with tetrahydrobenzonaphtyridine carboxanilide (TBN) derivatives and related pyrrolinones and hydrolysis products thereof. These compounds are active against Plasmodium falciparum strains that are resistant to multiple drugs currently on the market. The present invention further relates to novel compounds and pharmaceutical compositions comprising such compounds. The compounds have been synthesized and tested for their potency in the 3D7 strain of Plasmodium falciparum. Their cytotoxicity was also tested in the BJ human fibroblast line. No compounds show significant cytotoxicity.
(§2) A high-throughput screen performed against the Plasmodium parasite. About 8,000 compounds were screened. Each hit was tested against resistant P. falciparum variants K1, V1S, D10DD, ATP4 1247, and C2B. Potency against these assays assured that the chemotype acts through a mechanism distinct from that of halofantrine, chloroquine, mefloquine, pyrimethamine, proguanil, atovaquone, and (+)SJ733. The toxicity of the compounds was also measured by testing their lethality against a BJ cell line (human fibroblasts). No TBNs were toxic. A structure activity investigation was performed in order to improve the EC50 of the TBNs to the single-digit nanomolar range, as well as to increase the water solubility.
(§3) Substituents were installed at N−2 by using a variety of methods. Reductive alkylation (Abdel-Magid, A. F.; Mehrman, S. J. A Review on the Use of Sodium Triacetoxyborohydride in the Reductive Amination of Ketones and Aldehydes. Org. Process Res. Dev. 2006, 10 (5), 971-1031) was a dependable technique that produced over fifteen analogues. Conjugate additions and nucleophilic substitutions provided most of the others. A type of reductive alkylation that uses carboxylic acids instead of aldehydes (the Beller reduction) led to two analogues (Sorribes, I.; Junge, K.; Beller, M. Direct Catalytic N-Alkylation of Amines with Carboxylic Acids. J. Am. Chem. Soc. 2014, 136 (40), 14314-14319. Some of the compounds listed were synthesized through other means, or were derived from other TBNs. Compounds 66 and 128 were produced by the amidation of acids 132 and 133, which had the corresponding substitution already installed. TBNs 93, and 94 were produced from the Pfitzinger products formed from the condensation of isatin with (R)-1-(1-phenylethyl)piperidin-4-one (134) and (S)-1-(1-phenylethyl)piperidin-4-one (135), respectively.

[2] = in vitro; settings: human
Description: as §1, §2

[3] = test system: resistant P. falciparum variant K1; experiment: Potency against resistant P. falciparum variant K1 (EC50); settings: Plasmodium falciparum, K1, read-out: K1 EC50 (μM)
Experimental: as §2, §3

[4] = 3D7, read-out: 3D7 Mean EC50 (μM)
[5] = 3D7, read-out: 3D7 Mean EC50 of the TBN (μM)

SMILES | EC50 [1, 4] [µM] | EC50 [2] [nM] | EC50 [3] [µM] | EC50 [1, 5] [µM]
CC(C)(C)OC(=O)N1CCc2nc3ccccc3c(C(=O)Nc3ccc(F)c(F)c3)c2C1 [Compound 87, tert-Butyl 10-((3,4-difluorophenyl)carbamoyl)-3,4-dihydrobenzo[b][1,6]naphthyridine-2(1H)-carboxylate] | 1.67 ± 0.8 | > 23300 |  | 
CCOCCN1CCc2nc3ccccc3c(C(=O)Nc3ccc(F)c(F)c3)c2C1 [Compound 103, N-(3,4-Difluorophenyl)-2-(2-ethoxyethyl)-1,2,3,4-tetrahydrobenzo[b][1,6]naphthyridine-10-carboxamide] | 0.451 ± 0.416 |  | 0.0391 | 
CC(c1ncccn1)N1CCc2nc3ccccc3c(C(=O)Nc3ccc(F)c(F)c3)c2C1 (centres unmarked) [Compound 104, N-(3,4-Difluorophenyl)-2-(1-(pyrimidin-2-yl)ethyl)-1,2,3,4-tetrahydrobenzo[b][1,6]naphthyridine-10-carboxamide] | 0.453 ± 0.238 |  | 0.117 ± 0.0339 | 
O=C(Nc1ccc(F)c(F)c1)c1c2c(nc3ccccc13)CCN(Cc1ccccn1)C2 [Compound 105, N-(3,4-Difluorophenyl)-2-(pyridin-2-ylmethyl)-1,2,3,4-tetrahydrobenzo[b][1,6]naphthyridine-10-carboxamide] | 0.456 ± 0.0964 |  | 0.129 | 
O=C(Nc1ccc(F)c(F)c1)c1c2c(nc3ccccc13)CCN(Cc1cccnc1)C2 [Compound 106, N-(3,4-Difluorophenyl)-2-(pyridin-3-ylmethyl)-1,2,3,4-tetrahydrobenzo[b][1,6]naphthyridine-10-carboxamide] | 0.475 ± 0.163 |  | 0.236 | 
O=C(Nc1ccc(F)c(F)c1)c1c2c(nc3ccccc13)CCN(Cc1ccc(F)cc1)C2 [Compound 107, N-(3,4-Difluorophenyl)-2-(4-fluorobenzyl)-1,2,3,4-tetrahydrobenzo[b][1,6]naphthyridine-10-carboxamide] | 0.569 |  | 0.401 | 
O=C(Nc1ccc(F)c(F)c1)c1c2c(nc3ccccc13)CCN(CCCC(F)(F)F)C2 [Compound 108, N-(3,4-Difluorophenyl)-2-(4,4,4-trifluorobutyl)-1,2,3,4-tetrahydrobenzo[b][1,6]naphthyridine-10-carboxamide] | 0.665 ± 0.734 |  | 0.241 | 
O=C(Nc1ccc(F)c(F)c1)c1c2c(nc3ccccc13)CCN(Cc1ccncc1)C2 [Compound 111, N-(3,4-Difluorophenyl)-2-(pyridin-4-ylmethyl)-1,2,3,4-tetrahydrobenzo[b][1,6]naphthyridine-10-carboxamide] | 0.983 ± 0.133 |  | 0.647 | 
Cc1nc(CN2CCc3nc4ccccc4c(C(=O)Nc4ccc(F)c(F)c4)c3C2)cs1 [Compound 112, N-(3,4-Difluorophenyl)-2-((2-methylthiazol-4-yl)methyl)-1,2,3,4-tetrahydrobenzo[b][1,6]naphthyridine-10-carboxamide] | 1.03 ± 0.549 |  | 0.641 | 
CC(C)(O)CCN1CCc2nc3ccccc3c(C(=O)Nc3ccc(F)c(F)c3)c2C1 [Compound 116, N-(3,4-Difluorophenyl)-2-(3-hydroxy-3-methylbutyl)-1,2,3,4-tetrahydrobenzo[b][1,6]naphthyridine-10-carboxamide] | 2.01 ± 0.277 |  | 1.44 ± 0.337 | 
O=C(Nc1ccc(F)c(F)c1)c1c2c(nc3ccccc13)CCN(CCO)C2 [Compound 120, N-(3,4-Difluorophenyl)-2-(2-hydroxyethyl)-1,2,3,4-tetrahydrobenzo[b][1,6]naphthyridine-10-carboxamide] | 3.84 ± 2.08 |  | 2.2 ± 0.268 | 
O=C(Nc1ccc(F)c(F)c1)c1c2c(nc3ccccc13)CCN(CCCO)C2 [Compound 122, N-(3,4-Difluorophenyl)-2-(3-hydroxypropyl)-1,2,3,4-tetrahydrobenzo[b][1,6]naphthyridine-10-carboxamide] | 6.81 ± 2.54 |  | 4.64 ± 1.55 | 
CN(C)CCN1CCc2nc3ccccc3c(C(=O)Nc3ccc(F)c(F)c3)c2C1 [Compound 124, N-(3,4-Difluorophenyl)-2-(2-(dimethylamino)ethyl)-1,2,3,4-tetrahydrobenzo[b][1,6]naphthyridine-10-carboxamide] | 8.54 ± 1.84 |  | > 19.2 | 
CN(C)CCCN1CCc2nc3ccccc3c(C(=O)Nc3ccc(F)c(F)c3)c2C1 [Compound 126, N-(3,4-Difluorophenyl)-2-(3-(dimethylamino)propyl)-1,2,3,4-tetrahydrobenzo[b][1,6]naphthyridine-10-carboxamide] | 9.46 ± 2.17 |  | > 19.2 | 
NCCN1CCc2nc3ccccc3c(C(=O)Nc3ccc(F)c(F)c3)c2C1 [Compound 129, 2-(2-Aminoethyl)-N-(3,4-difluorophenyl)-1,2,3,4-tetrahydrobenzo[b][1,6]naphthyridine-10-carboxamide] | 14.5 ± 4.73 |  | 9.46 ± 0.982 | 
O=C(O)CCN1CCc2nc3ccccc3c(C(=O)Nc3ccc(F)c(F)c3)c2C1 [Compound 131, 3-(10-((3,4-Difluorophenyl)carbamoyl)-3,4-dihydrobenzo[b][1,6]naphthyridin-2(1H)-yl)propanoic acid] | > 19.2 |  | > 19.2 | 
O=C(Nc1ccc(F)c(F)c1)c1c2c(nc3c1CN(Cc1ccccc1)CC3)CCCC2 [Compound 137, 2-Benzyl-N-(3,4-difluorophenyl)-1,2,3,4,6,7,8,9-octahydrobenzo[b][1,6]naphthyridine-10-carboxamide] | 0.0949 ± 0.0266 |  | 0.279 | > 3.49
CCN1CCc2nc3c(c(C(=O)Nc4ccc(F)c(F)c4)c2C1)CCCC3 [Compound 138, N-(3,4-Difluorophenyl)-2-ethyl-1,2,3,4,6,7,8,9-octahydrobenzo[b][1,6]naphthyridine-10-carboxamide] | 0.715 ± 0.29 |  | 0.64 | > 12.2
CC(c1ncccn1)N1CCc2nc3c(c(C(=O)Nc4ccc(F)c(F)c4)c2C1)CCCC3 (centres unmarked) [Compound 139, N-(3,4-Difluorophenyl)-2-(1-(pyrimidin-2-yl)ethyl)-1,2,3,4,6,7,8,9-octahydrobenzo[b][1,6]naphthyridine-10-carboxamide] | 0.849 ± 0.52 |  | 0.266 ± 0.0462 | 0.453 ± 0.238
CC(c1ccccn1)N1CCc2nc3c(c(C(=O)Nc4ccc(F)c(F)c4)c2C1)CCCC3 (centres unmarked) [Compound 140, N-(3,4-Difluorophenyl)-2-(1-(pyridin-2-yl)ethyl)-1,2,3,4,6,7,8,9-octahydrobenzo[b][1,6]naphthyridine-10-carboxamide] | 1.5 ± 0.389 |  | 0.558 ± 0.123 | 0.0603 ± 0.0234
O=C(Nc1ccc(Cl)cc1)c1c2c(nc3cc(Cl)ccc13)CCN(CCc1ccccc1)C2 [Compound 165, 7-Chloro-N-(4-chlorophenyl)-2-phenethyl-1,2,3,4-tetrahydrobenzo[b][1,6]naphthyridine-10-carboxamide] | < 0.00809 | > 24000 |  | 
COc1ccc(NC(=O)c2c3c(nc4cc(Cl)ccc24)CCN(CCc2ccccc2)C3)cc1OC [Compound 166, 7-Chloro-N-(3,4-dimethoxyphenyl)-2-phenethyl-1,2,3,4-tetrahydrobenzo[b][1,6]naphthyridine-10-carboxamide] | < 0.0132 | > 24000 |  | 
O=C(Nc1cccc(Cl)c1)c1c2c(nc3cc(Cl)ccc13)CCN(CCc1ccccc1)C2 [Compound 167, 7-Chloro-N-(3-chlorophenyl)-2-phenethyl-1,2,3,4-tetrahydrobenzo[b][1,6]naphthyridine-10-carboxamide] | 0.0216 ± 0.012 | > 24000 |  | 
